This is an account of results in ChEMBL document CHEMBL5365520, “Unlocking DCAFs To Catalyze Degrader Development: An Arena for Innovative Approaches” (J Med Chem, 2023).

In experiment [1] the target is T1, DDB1- and CUL4-associated factor 16/Bromodomain-containing protein 4 (Homo sapiens, UniProt O60885+Q9NXF7). As to the kind of experiment: PROTAC activity at DCAF16/BRD4 in human PC-3 cells assessed as reduction in protein degradation. Format: cell-based.
Experiment [2] has as its target T1, DDB1- and CUL4-associated factor 16/Bromodomain-containing protein 4. In words: PROTAC activity at DCAF16/BRD4 in human PC-3 cells assessed as maximal degradation relative to control. Format: cell-based.
Experiment [3] deals with DCAF11-BRD4 (Homo sapiens) (UniProt O60885+Q8TEB1). In words: PROTAC activity at DCAF11/BRD4 in HEK293T cells assessed as reduction of protein degradation at 1 uM measured after 24 hrs relative to control. It is filed as cell-based. Also on record: scale not given: the % may be the effect or the level left.
For experiment [4], the target named is DNA damage-binding protein 1 (Homo sapiens, UniProt Q16531). In words: Binding affinity to N-terminal His6-tagged human DDB1 expressed in baculovirus infected Hi-5 insect cells assessed as dissociation constant by SPR analysis. For orientation: SPR reads the build-up and loss of mass on a sensor chip optically.
Experiment [5] can be described thus: Binding affinity to biotinylated human DDA1/DDB1 (398 to 701 residues)/N-terminal His-ZZ-3C-tagged DCAF15 expressed in baculovirus infected Sf21 cells immobilized on SA chip assessed as dissociation constant by SPR analysis.
A short description of experiment [6]: Binding affinity to biotinylated human DDA1/DDB1 (398 to 701 residues)/N-terminal His-ZZ-3C-tagged DCAF15/RBM39 RRM2 domain expressed in baculovirus infected Sf21 cells immobilized on SA chip assessed as dissociation constant by SPR analysis.
The next experiment deals with DCAF1-BRD9 (Homo sapiens, UniProt Q9H8M2+Q9Y4B6). As to the kind of experiment: PROTAC activity at DCAF1/BRD9 in HEK293T cells co expressing HiBit/FF/CAS9 assessed as reduction of protein degradation measured after 6 hrs by immunoblotting analysis. Format: cell-based. In general terms: HiBiT is a short tag that completes a luciferase, so light tracks the accessible tagged protein.

The target in experiment [7] is von Hippel-Lindau disease tumor suppressor/Bromodomain-containing protein 4 (Homo sapiens, UniProt O60885+P40337). In words: PROTAC activity at VHL/BRD4 in human LNCaP cells assessed as reduction in protein degradation measured after 6 hrs by Western blot analysis. Format: cell-based. Background: A western blot detects proteins with antibodies after separation by electrophoresis.
Sequence of von Hippel-Lindau disease tumor suppressor/Bromodomain-containing protein 4 (P40337 whole entry, looked up, other chains not shown): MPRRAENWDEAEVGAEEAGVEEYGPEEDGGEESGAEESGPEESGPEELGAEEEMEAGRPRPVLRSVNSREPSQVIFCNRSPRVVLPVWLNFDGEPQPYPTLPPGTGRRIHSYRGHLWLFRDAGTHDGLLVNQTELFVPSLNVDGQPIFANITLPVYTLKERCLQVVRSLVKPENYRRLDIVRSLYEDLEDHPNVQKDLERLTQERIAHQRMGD

T1 sequence (Q9NXF7 whole entry, looked up, other chains not shown): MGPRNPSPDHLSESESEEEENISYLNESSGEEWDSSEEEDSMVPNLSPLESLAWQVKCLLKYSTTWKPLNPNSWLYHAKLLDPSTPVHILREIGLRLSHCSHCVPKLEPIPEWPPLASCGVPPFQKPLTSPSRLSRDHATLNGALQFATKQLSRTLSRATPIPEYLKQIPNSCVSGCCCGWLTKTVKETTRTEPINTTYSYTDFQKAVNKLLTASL
Sequence of DCAF11-BRD4 (Homo sapiens) (Q8TEB1 whole entry, looked up, other chains not shown): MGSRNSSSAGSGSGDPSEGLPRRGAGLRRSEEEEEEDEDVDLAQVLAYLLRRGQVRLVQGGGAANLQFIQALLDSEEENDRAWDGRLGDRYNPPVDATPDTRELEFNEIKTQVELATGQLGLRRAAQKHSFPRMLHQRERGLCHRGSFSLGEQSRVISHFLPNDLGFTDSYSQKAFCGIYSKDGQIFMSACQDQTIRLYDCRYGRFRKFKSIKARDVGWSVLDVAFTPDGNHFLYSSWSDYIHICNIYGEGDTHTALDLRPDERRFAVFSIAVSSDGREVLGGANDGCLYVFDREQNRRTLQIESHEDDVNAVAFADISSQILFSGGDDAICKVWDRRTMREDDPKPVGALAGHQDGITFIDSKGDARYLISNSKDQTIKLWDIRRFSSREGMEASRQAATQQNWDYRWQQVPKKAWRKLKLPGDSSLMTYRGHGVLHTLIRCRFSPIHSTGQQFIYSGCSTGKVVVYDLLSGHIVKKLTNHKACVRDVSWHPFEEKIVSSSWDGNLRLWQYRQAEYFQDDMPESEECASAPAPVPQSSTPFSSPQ
Sequence of DNA damage-binding protein 1 (Q16531 whole entry, the tested form may be a part): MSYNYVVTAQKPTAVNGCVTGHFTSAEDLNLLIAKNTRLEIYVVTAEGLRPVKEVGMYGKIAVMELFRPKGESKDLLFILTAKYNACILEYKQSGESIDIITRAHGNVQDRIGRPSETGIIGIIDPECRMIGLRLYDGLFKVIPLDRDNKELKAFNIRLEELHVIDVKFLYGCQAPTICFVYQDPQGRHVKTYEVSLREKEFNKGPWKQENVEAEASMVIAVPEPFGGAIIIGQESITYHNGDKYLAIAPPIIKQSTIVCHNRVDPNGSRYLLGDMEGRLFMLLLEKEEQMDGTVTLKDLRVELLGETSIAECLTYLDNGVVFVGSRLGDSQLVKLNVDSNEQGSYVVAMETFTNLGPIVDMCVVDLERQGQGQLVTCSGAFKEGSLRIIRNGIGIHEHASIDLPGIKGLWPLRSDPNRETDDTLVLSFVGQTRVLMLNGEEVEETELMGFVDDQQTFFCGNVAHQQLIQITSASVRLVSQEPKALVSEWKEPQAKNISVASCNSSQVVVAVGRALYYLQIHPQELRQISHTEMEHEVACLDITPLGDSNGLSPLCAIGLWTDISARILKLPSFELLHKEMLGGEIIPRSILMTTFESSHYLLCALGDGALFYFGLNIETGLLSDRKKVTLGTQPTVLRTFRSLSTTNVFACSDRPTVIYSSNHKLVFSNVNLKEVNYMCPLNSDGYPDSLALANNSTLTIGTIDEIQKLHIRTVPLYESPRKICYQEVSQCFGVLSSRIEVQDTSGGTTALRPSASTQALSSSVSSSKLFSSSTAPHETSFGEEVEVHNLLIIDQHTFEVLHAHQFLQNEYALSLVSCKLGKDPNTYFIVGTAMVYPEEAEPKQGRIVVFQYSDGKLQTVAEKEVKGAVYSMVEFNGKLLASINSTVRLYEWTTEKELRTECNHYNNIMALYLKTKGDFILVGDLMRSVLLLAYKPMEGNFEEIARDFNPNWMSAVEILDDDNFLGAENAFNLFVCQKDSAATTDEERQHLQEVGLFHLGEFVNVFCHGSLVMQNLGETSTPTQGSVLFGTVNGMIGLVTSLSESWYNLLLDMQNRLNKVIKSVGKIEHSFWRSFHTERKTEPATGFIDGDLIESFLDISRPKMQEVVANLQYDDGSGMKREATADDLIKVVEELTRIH
Sequence of DCAF1-BRD9 (Q9H8M2 whole entry): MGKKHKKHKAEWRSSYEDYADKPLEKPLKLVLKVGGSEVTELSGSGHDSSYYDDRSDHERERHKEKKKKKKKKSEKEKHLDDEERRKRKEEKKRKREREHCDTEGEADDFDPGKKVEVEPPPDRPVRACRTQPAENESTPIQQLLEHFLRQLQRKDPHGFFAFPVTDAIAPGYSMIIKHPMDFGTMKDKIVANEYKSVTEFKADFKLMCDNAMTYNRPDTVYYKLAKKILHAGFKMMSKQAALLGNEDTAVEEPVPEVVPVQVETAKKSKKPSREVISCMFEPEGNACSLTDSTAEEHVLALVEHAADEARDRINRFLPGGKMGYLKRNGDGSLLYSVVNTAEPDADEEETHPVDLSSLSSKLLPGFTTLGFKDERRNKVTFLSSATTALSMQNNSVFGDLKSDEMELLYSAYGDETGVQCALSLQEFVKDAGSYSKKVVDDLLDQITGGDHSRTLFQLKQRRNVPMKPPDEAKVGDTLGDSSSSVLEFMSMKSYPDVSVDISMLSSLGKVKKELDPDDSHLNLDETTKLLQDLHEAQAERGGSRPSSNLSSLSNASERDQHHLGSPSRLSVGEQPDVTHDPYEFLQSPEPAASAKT
Sequence of DCAF1-BRD9 (Q9Y4B6 whole entry): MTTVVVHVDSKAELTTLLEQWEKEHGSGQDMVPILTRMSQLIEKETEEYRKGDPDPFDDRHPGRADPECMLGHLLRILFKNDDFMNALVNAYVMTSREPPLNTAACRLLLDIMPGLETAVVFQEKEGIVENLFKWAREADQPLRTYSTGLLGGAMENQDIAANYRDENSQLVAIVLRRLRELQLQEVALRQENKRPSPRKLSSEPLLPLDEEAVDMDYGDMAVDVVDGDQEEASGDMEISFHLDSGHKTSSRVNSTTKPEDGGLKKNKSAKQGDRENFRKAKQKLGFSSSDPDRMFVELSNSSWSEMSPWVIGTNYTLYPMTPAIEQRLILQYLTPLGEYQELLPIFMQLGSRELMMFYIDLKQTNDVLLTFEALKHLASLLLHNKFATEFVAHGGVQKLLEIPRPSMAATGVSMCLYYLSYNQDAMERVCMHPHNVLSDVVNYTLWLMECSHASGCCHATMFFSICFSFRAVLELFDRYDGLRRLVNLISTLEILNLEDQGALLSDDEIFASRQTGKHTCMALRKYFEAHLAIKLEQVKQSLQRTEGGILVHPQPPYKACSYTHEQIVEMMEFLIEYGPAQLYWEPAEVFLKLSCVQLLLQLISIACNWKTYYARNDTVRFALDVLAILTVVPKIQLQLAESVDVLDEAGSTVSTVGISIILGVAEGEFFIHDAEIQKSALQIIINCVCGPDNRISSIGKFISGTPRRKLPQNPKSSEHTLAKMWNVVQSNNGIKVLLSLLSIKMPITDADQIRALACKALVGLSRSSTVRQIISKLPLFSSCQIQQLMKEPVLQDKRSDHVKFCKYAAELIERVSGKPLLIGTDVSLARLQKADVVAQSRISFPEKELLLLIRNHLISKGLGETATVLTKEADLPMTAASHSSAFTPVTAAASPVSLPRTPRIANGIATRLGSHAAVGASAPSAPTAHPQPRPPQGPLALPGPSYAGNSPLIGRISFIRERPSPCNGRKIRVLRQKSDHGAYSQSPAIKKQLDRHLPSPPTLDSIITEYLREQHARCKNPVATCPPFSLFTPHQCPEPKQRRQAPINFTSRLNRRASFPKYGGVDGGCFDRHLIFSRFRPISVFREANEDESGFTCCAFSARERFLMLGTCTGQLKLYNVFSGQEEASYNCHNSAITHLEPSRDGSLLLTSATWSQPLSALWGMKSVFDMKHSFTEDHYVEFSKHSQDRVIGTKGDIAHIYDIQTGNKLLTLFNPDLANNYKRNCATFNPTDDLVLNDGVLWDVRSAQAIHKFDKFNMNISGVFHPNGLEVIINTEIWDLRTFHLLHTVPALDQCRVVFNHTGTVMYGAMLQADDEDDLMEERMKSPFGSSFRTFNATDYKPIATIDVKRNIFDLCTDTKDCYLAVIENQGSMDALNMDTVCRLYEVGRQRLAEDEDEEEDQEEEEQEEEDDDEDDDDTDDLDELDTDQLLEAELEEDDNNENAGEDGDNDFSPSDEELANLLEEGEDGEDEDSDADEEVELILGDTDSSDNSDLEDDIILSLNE

`Cc1sc2c(c1C)C(c1ccc(C#CCN)cc1)=N[C@@H](CC(=O)OC(C)(C)C)c1nnc(C)n1-2`: the DC50 in experiment [1] was determined as 1.4 nM. In addition, the Emax in experiment [2] was 84%.

As for `Cc1sc2c(c1C)C(c1ccc(-c3cccc(NC(=O)c4cn5ccccc5n4)c3)cc1)=N[C@@H](CC(N)=O)c1nnc(C)n1-2`, the Activity in experiment [3] came to 95%. For the compound `Cc1cc(NCCOCCOCCOCCOCCOCCN)ccc1C(=O)Nc1nc(C)c(C)s1`, the dissociation constant Kd in experiment [4] is less than 20000 nM. Take `NS(=O)(=O)c1ccc(S(=O)(=O)Nc2cccc3c(Cl)c[nH]c23)cc1` [INDISULAM]: the Kd is greater than 50000 nM in experiment [5] and 135 nM in experiment [6]. With `COc1cc(-c2cncc3c(=O)n(C)ccc23)c(OC)cc1CN1CCC(OCCCCCC(=O)N2CCN(c3ccc4c(NCCN)nc(C5(c6ccc(Cl)cc6)CCCCC5)nc4c3)CC2)CC1`, at DCAF1-BRD9, the EC50 is roughly 500 nM. `Cc1sc2c(c1C)C(c1ccc(-c3ccc(C(=O)NCc4ccc(S(=O)(=O)Nc5ccc(C)c6c(C#N)c[nH]c56)cc4)cc3)cc1)=N[C@@H](CC(=O)OC(C)(C)C)c1nnc(C)n1-2`: in experiment [7], the half-maximal effective concentration (EC50) was 0.15 nM.

As usually defined, the DC50 is the concentration at which degradation of the target reaches its halfway point. One may read the Emax as the greatest response seen or fitted, relative to the assay's reference. A word on the Kd: it is the free concentration of one partner at which half of the binding sites on the other are occupied at equilibrium, for simple one-to-one binding. A word on the EC50: it is the concentration giving half of the maximal effect.
